Assay results taken from ChEMBL document CHEMBL1131091, “Discovery of potent, achiral matrix metalloproteinase inhibitors” (J Med Chem, 1998).

What was measured:
[1] = biological target: T1, Matrilysin (Homo sapiens, UniProt P09237); test: Inhibition of Matrix metalloprotease-7
T1 sequence (P09237 whole entry): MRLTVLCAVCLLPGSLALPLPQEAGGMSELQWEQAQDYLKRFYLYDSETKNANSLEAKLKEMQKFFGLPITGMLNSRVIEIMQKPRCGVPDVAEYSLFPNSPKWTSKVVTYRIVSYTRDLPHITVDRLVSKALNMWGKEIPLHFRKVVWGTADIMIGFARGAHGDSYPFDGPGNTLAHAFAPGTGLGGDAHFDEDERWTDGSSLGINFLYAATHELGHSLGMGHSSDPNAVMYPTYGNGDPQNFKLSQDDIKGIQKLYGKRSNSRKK

[2] = biological target: T2, Interstitial collagenase (Homo sapiens, UniProt P03956); test: Inhibition of Matrix metalloprotease-1
T2 sequence (P03956 whole entry): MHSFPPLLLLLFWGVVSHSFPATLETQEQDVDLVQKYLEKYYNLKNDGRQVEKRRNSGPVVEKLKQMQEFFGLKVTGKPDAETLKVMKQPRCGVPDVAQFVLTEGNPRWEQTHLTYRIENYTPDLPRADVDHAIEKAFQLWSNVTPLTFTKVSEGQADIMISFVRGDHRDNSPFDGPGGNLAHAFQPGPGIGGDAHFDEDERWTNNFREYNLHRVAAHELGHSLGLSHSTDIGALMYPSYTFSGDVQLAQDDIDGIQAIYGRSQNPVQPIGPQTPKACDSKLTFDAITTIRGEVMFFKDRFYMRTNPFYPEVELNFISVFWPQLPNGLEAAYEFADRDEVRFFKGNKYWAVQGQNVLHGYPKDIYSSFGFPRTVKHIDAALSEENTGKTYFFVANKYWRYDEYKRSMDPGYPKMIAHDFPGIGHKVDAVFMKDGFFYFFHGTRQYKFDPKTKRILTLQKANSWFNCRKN

[3] = biological target: Matrix metalloproteinase-9 (Homo sapiens, UniProt P14780); test: Inhibition of Matrix metalloprotease-9
[4] = biological target: Stromelysin-1 (Homo sapiens, UniProt P08254); test: Inhibition of Matrix metalloprotease-3
Chain of Stromelysin-1 (P08254 whole entry): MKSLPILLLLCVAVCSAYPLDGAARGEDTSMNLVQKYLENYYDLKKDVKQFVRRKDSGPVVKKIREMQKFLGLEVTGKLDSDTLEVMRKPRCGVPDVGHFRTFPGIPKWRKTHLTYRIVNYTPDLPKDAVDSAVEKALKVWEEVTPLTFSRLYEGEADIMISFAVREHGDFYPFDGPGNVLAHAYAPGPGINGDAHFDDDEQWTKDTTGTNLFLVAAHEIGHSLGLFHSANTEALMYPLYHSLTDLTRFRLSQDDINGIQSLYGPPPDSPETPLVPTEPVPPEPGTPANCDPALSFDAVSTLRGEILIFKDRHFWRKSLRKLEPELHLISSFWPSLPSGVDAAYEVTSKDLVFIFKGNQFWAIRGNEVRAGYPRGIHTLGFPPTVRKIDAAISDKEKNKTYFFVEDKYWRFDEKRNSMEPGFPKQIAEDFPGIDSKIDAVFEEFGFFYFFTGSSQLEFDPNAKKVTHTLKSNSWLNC

Chain of Matrix metalloproteinase-9 (P14780 whole entry): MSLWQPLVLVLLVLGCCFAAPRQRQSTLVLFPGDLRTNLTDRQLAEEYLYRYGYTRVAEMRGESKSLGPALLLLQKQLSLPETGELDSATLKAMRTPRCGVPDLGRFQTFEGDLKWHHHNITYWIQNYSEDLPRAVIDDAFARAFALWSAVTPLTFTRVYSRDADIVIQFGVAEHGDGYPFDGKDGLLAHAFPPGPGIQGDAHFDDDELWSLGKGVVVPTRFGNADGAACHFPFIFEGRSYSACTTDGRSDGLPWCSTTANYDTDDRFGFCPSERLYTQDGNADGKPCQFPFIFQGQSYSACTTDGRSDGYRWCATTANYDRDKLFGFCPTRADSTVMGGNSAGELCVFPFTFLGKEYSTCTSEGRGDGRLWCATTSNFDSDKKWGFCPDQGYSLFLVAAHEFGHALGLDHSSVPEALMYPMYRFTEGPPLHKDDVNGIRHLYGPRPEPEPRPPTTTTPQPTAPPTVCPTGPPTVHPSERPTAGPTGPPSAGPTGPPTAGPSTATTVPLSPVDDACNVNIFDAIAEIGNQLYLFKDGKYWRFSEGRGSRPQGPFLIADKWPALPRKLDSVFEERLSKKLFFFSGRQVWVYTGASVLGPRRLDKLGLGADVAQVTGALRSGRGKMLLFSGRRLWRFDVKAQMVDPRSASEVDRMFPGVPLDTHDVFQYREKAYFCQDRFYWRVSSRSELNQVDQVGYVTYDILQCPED

IC50 [1]	IC50 [2]	IC50 [3]	IC50 [4]	Structure (SMILES)
30 nM	24 nM	2.7 nM		COc1ccc(S(=O)(=O)N2CC(C)(C)CN(S(=O)(=O)c3ccc(OC)cc3)C2C(=O)NO)cc1
	4650 nM		1060 nM	COc1ccc(S(=O)(=O)N2CCN(S(=O)(=O)c3ccc(OC)cc3)C2C(=O)NO)cc1
460 nM	79 nM	3.9 nM	33 nM	COc1ccc(S(=O)(=O)N2CCCN(S(=O)(=O)c3ccc(OC)cc3)C2C(=O)NO)cc1
106 nM				COc1ccc(S(=O)(=O)N(Cc2cccnc2)[C@@H](C(=O)NO)C(C)C)cc1 [CGS-27023A]

More lines, now with the values behind:

Structure (SMILES)	IC50 [1]	IC50 [2]	IC50 [3]	IC50 [4]
COc1ccc(S(=O)(=O)N2CC(O)CN(S(=O)(=O)c3ccc(OC)cc3)C2C(=O)NO)cc1 (stereo not drawn)	366 nM	51 nM	4.7 nM	41 nM
COc1ccc(S(=O)(=O)N2CC3(CN(S(=O)(=O)c4ccc(OC)cc4)C2C(=O)NO)SCCCS3)cc1	123 nM	79 nM	15.6 nM	19.5 nM
COc1ccc(S(=O)(=O)N2CCCCN(S(=O)(=O)c3ccc(OC)cc3)C2C(=O)NO)cc1		827 nM		1290 nM
CCCCOc1ccc(S(=O)(=O)N2CC(C)(C)CN(S(=O)(=O)c3ccc(OCCCC)cc3)C2C(=O)NO)cc1	716 nM		101 nM	22 nM
